# Test results: patent publication US11786517B2, “Methods of treatment using a JAK inhibitor compound” (THERAVANCE BIOPHARMA R&D IP, LLC, priority 2017, dated 2023)
# Experiments:
# [1] = test system: IFNγ induced IP-10 protein levels; test: Pharmacodynamic assay: inhibition of IFNγ-induced IP-10 in rabbits; type: in vivo, New Zealand White rabbits
# Method: The ability of a single intravitreal administration of test compound to inhibit interferon-gamma (IFNγ) induced IP-10 protein levels was measured in rabbit vitreous and retina/choroid tissues.
# Solution formulations at concentrations of 1 mg/mL and 4 mg/mL of compound 1 of Example 1 were prepared as in Assay 8. A suspension formulation was prepared by combining crystalline compound 1 of Example 1 with 0.5% hydroxypropyl methylcellulose (HPMC E5), 0.02% Tween 80, and 9 mg/mL sodium chloride in purified water to attain a target concentration of 20 mg/mL.
# Male, New Zealand White rabbits (Liveon Biolabs, India) were used for the studies. Animals were acclimated after arrival at the research facilities (Jubilant Biosys Ltd., India). Each rabbit was given a total of two intravitreal (IVT) injections with a total dose volume of 50 μL per eye. The first IVT injection (45 μL per eye) delivered test compound or vehicle at a prescribed time point (i.e. 24 hours for the solution formulations or 1 week for the suspension formulation). The second IVT injection (5 μL per eye) delivered IFNγ (1 μg/eye; Stock solution 1 mg/mL; Kingfisher Biotech) or vehicle for the induction of IP-10. In brief, on the day of the injections, rabbits were anesthetized with an intramuscular injection of ketamine (35 mg/kg) and xylazine (5 mg/kg). Once deeply anesthetized, each eye was rinsed with sterile saline and IVT injections were performed using a 0.5 mL insulin syringe (50 units=0.5 mL) with a 31-gauge needle at the supra-nasal side of the both eyes by marking the position with a Braunstein fixed caliper (2¾″) 3.5 mm from the rectus muscle and 4 mm from the limbus.
# Tissues were collected 24 hours after the second IVT injection with IFNγ. Vitreous humor (VH) and retina/choroid tissues (R/C) were collected and homogenized, and IP-10 protein levels were measured using a rabbit CXCL10 (IP-10) ELISA kit (Kingfisher Biotech). The percent inhibition of IFNγ-induced IP-10 was calculated in comparison to the vehicle/vehicle and vehicle/IFNγ groups.
# [2] = Pharmacokinetics in plasma and lung in mouse; type: in vivo, BALB/c mice; conditions: oral aspiration, 0.2 mg/mL, 50 uL
# Method: Plasma and lung levels of the test compound and the ratio thereof was determined in the following manner. BALB/c mice from Charles River Laboratories were used in the assay. Test compounds were individually formulated in 20% propylene glycol in pH 4 citrate buffer at a concentration of 0.2 mg/mL and 50 uL of the dosing solution was introduced into the trachea of a mouse by oral aspiration. At various time points (typically 0.167, 2, 6, 24 hr) post dosing, blood samples were removed via cardiac puncture and intact lungs were excised from the mice. Blood samples were centrifuged (Eppendorf centrifuge, 5804R) for 4 minutes at approximately 12,000 rpm at 4° C. to collect plasma. Lungs were padded dry, weighed, and homogenized at a dilution of 1:3 in sterile water. Plasma and lung levels of test compound were determined by LC-MS analysis against analytical standards constructed into a standard curve in the test matrix. A lung to plasma ratio was determined as the ratio of the lung AUC in μg hr/g to the plasma AUC in μg hr/mL, where AUC is conventionally defined as the area under the curve of test compound concentration vs. time.
# [3] = test system: IL-13 induced pSTAT6 in lung tissue; test: Murine model of IL-13 induced pSTAT6 induction in lung tissue; type: in vivo, balb/c mice; conditions: mouse lung, 0.5 mg/mL 50 μL oral aspiration
# Method: Il-13 is an important cytokine underlying the pathophysiology of asthma (Kudlacz et al. Eur. J. Pharmacol, 2008, 582, 154-161). IL-13 binds to cell surface receptors activating members of the Janus family of kinases (JAK) which then phosphorylate STAT6 and subsequently activates further transcription pathways. In the described model, a dose of IL-13 was delivered locally into the lungs of mice to induce the phosphorylation of STAT6 (pSTAT6) which is then measured as the endpoint.
# Adult balb/c mice from Harlan were used in the assay. On the day of study, animals were lightly anesthetized with isoflurane and administered either vehicle or test compound (0.5 mg/mL, 50 μL total volume over several breaths) via oral aspiration. Animals were placed in lateral recumbency post dose and monitored for full recovery from anesthesia before being returned to their home cage. Four hours later, animals were once again briefly anesthetized and challenged with either vehicle or IL-13 (0.03 μg total dose delivered, 50 μL total volume) via oral aspiration before being monitored for recovery from anesthesia and returned to their home cage. […] using an anti-pSTAT6 ELISA (rabbit mAb capture/coating antibody; mouse mAb detection/report antibody: anti-pSTAT6-pY641; secondary antibody: anti-mouse IgG-HRP) and analyzed for total drug concentration as described above in Assay 11. […]
# airway neutrophils = test: Murine model of LPS/G-CSF/IL-6/IFNγ cocktail-induced airway neutrophilic inflammation; type: in vivo, Balb/C mice; conditions: mouse, 1.0 mg/mL 50 μL oropharyngeal aspiration, BALF at twenty-four hours
# Method: Airway neutrophilia is a hallmark of a range of respiratory disease in humans. Compound 1 was tested in a model of neutrophilic airway inflammation using a LPS/G-CSF/IL-6/IFNγ cocktail to induce airway neutrophilia.
# Seven- to nine-week old male Balb/C (wildtype) mice from Jackson Laboratory were used in the study. On the day of study, animals were lightly anesthetized with isoflurane and administered either vehicle or test compound (1.0 mg/mL, 50 μL total volume over several breaths) via oropharyngeal aspiration. Animals were placed in lateral recumbency post dose and monitored for full recovery from anesthesia before being returned to their home cage. One hour later, animals were once again briefly anesthetized and challenged with either vehicle or LPS; 0.01 mg/kg/G-CSF; 5 μg/IL-6; 5 μg/IFNγ; 5 μg (100 μL total volume) via oropharyngeal aspiration (OA). Twenty-four hours after the LPS/G-CSF/IL-6/IFNγ cocktail administration, bronchoalveolar lavage fluid (BALF) was collected and neutrophils were counted.
structure (smiles),measurement,setting,value
"CCc1cc(O)c(F)cc1-c1ccc2c(-c3nc4c([nH]3)CCN(C3CCN(C)CC3)C4)n[nH]c2c1 [compound 1, 5-ethyl-2-fluoro-4-(3-(5-(1-methylpiperidin-4-yl)-4,5,6,7-tetrahydro-1H-imidazo[4,5-c]pyridin-2-yl)-1H-indazol-6-yl)phenol]",inhibition of IFNγ-induced IP-10,"[1]; rabbit retina/choroid tissue, 45 μg solution, 24 hour pre-treatment",86
same,inhibition of IFNγ-induced IP-10,"[1]; rabbit retina/choroid tissue, 180 μg solution, 24 hour pre-treatment",100%
same,inhibition of IFNγ-induced IP-10,"[1]; rabbit retina/choroid tissue, crystalline suspension 20 mg/mL, 1 week pre-treatment",100%
same,inhibition of IFNγ-induced IP-10,"[1]; rabbit vitreous humor, 45 μg solution, 24 hour pre-treatment",70%
same,inhibition of IFNγ-induced IP-10,"[1]; rabbit vitreous humor, 180 μg solution, 24 hour pre-treatment",91%
same,inhibition of IFNγ-induced IP-10,"[1]; rabbit vitreous humor, crystalline suspension 20 mg/mL, 1 week pre-treatment",100%
same,exposure in lung relative to exposure in plasma (lung AUC to plasma AUC ratio),[2],about 55 times
same,inhibition of STAT6 phosphorylation,[3],about 60%
same,reduction of the airway neutrophils compared to vehicle treated mice,airway neutrophils,84%
